Substitutions are numbered along the chain they refer to. Values joined by “and” are separate entries in the source; they are usually repeats but may differ in a detail not shown here. Identical values can stand only once. Like-named read-outs stand apart in the source and are kept apart here.
Assays:
Assay type in all cases: binding
FicD^L258D [1] = molecular target: T1, FicD^L258D (Homo sapiens, UniProt Q9BVA6, L258D); assay: Isothermal titration calorimetry (ITC) with Δ104hFicD^L258D; details: 4 mM MgCl2, 20 °C, 1σ error interval in parenthesis
T1 construct: soluble ER luminal domain (residues 105 to 458) of wild-type human FicD and three mutants; 6xHis-Sumo (N, cleaved yes); made in house; host or cells: Rosetta(DE3) E. coli
T1 sequence (Q9BVA6 105-458 L258D): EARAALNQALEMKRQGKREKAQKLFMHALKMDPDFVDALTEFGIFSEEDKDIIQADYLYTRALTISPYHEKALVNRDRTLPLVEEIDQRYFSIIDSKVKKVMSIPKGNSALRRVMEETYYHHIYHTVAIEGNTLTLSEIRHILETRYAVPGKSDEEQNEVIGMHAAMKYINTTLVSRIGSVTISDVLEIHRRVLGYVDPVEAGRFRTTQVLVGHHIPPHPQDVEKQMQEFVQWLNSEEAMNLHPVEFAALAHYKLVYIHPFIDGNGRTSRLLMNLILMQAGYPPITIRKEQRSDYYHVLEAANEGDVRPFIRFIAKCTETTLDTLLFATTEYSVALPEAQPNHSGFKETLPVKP
Excerpt: To further support this notion, we used Isothermal Titration Calorimetry (ITC) to determine the Kd of FPP binding. […] In these experiments, the interaction between FPP and Mg^2+ generated endothermic peaks that interfered with detecting the interaction between FPP, Mg^2+, and FicD (Fig. 3, Upper). The stoichiometry of FPP binding to FicD was consistently <0.85, which may indicate that Mg^2+ was not saturating. Because the endothermic interaction between Mg^2+ and FPP limited the quantity of MgCl2 we could add, the measured Kd could be larger than the true value.
Fig. 3. ITC with FicD and Farnesyl-pyrophosphate. Representative ITC thermogram for FPP binding to Δ104hFicD^L258D (Upper). […] Dissociation constants (Kd) of individual replicates and global fitting of triplicate isotherms are reported with 1σ error intervals in parenthesis. TEXT PRINTED IN THE PICTURE: no label printed: Kd (nM): 32.3 (15.6, 54.9) (Replicate 1); Kd (nM): 25.6 (10.1, 47.7) (Replicate 2); Kd (nM): 45.2 (29.4, 68.8) (Replicate 3); Kd (nM): 60.3 (23.1, 126.3) (Global) DOUBTS OF THE COPYIST ABOUT THIS PICTURE: The picture prints no substance label; the table rows are replicates and a global fit of one measurement, so all four Kd values are given under one unlabeled substance. […]
Isothermal Titration Calorimetry
Proteins were dialyzed against 25mM HEPES pH 7.4/100mM KCl/10% glycerol prior to titration.
Dialyzed proteins were then spun down at 21,000G for 15 minutes at 4C to remove trace insoluble material. The protein concentration was measured spectrophotometrically and then diluted to working concentration with 25mM HEPES pH 7.4/100mM KCl/10% glycerol. MgCl2 was added to proteins to a final concentration of 4mM. ITC experiments were performed in a Micro-Cal PEAQ-ITC (Malvern Panalytical, Worcestershire, UK) calorimeter with a stirred 206.2 μL reaction cell held at 20 °C. 250μM FPP was titrated into 25uM Δ104hFicL258D with 750rpm stirring. The first injection was 0.5 μL, followed by twenty 1.9 μL injections. ITC data were integrated and baseline corrected using NITPIC 2.1.5 (10, 11). Integrated data was globally analyzed in SEDPHAT 15.b (12) using a model considering a single class of binding sites. […]
10% Lithium dodecyl sulfate, 50% glycerol, 50mM DTT, 0.05% Bromophenol blue) and then heated […]
For deAMPylation assays with FicD and BiP, Δ26hBiPT229A was in-vitro AMPylated by […]
5mM MgCl2, 500uM ATP, 0.5% CHAPS, 1mM DTT. After one hour of incubation at 30-37C, the entire reaction mix was transferred into an Amicon 0.5mL 50kDa MWCO concentrator (cat no.
7.4/150mM NaCl/10% glycerol/1mM DTT was added to the concentrated AMPylation reaction and then spun down again at 14,000 x g at 4C for 5-10 minutes. This step was repeated four times to buffer exchange AMPylated Δ26hBiPT229A.
Δ104hFicDWT and Δ26hBiPT229A-AMP were combined at a ratio of 1:80 in buffer containing 25mM HEPES pH 7.4, 100mM KCl, 5mM MgCl2, 1mM DTT and the indicated small molecule where applicable. Reactions were incubated at 37C for 1 hour and stopped by the addition EDTA. 5X SDS sample buffer (250mM Tris pH 6.8, 10% Lithium dodecyl sulfate, 50% glycerol, 50mM DTT, 0.05% Bromophenol blue) was then added to the reactions and reactions were heated for 5 minutes at […]
For in-vitro AMPylation assays with VopS and CDC42, Δ30VopS and GST-CDC42 – provided by a previous lab member – were combined at a 1:80 molar ratio in 50mM Tris pH 7.4/100mM NaCl/1mM DTT in the presence of GPP or FPP, where applicable. […]

FicD^L258D [2] = molecular target: T1, FicD^L258D; assay: Differential scanning fluorimetry (DSF) thermal shift with FicD^L258D
Protocol: Differential Scanning Fluorimetry
Thermal shift assays were performed in Biorad CfX384 Touch Real-Time PCR Detection System […]
Reactions contained 50mM HEPES pH 7.4, 200mM NaCl, 200mM KCl, 200uM DTT, 5X Invitrogen Sypro Orange (Cat no. S6650), 8-9μM protein, and indicated nucleotide, cofactor, or small molecule in a total volume of 20uL. For every experiment ‘no protein’ controls were also included with the same reaction conditions. All reactions were performed in technical triplicates. Sealed plates containing reaction mixes were centrifuged for 1-5 min at 1000 RPM prior to temperature scanning (FRET channel), which was performed from 6°C […]
DSF data was analyzed with traditional methods automated in a Python package (https://pypi.org/project/instawell/). Briefly, for each temperature, the RFU values of technical triplicates are averaged. For each timepoint, the background fluorescence was subtracted using the RFU values of the ‘no protein’ control. […]
calculated. The melting temperature (Tm) is defined as the first derivative peak value. Data

FicD^WT = molecular target: T2, FicD^WT (Homo sapiens, UniProt Q9BVA6); assay: MIDAS equilibrium dialysis/mass spectrometry metabolite screen, FicD^WT; details: cutoff Q < 0.05 and |Log2 corrected fold change| > 2, metabolites 5 µM
T2 construct: soluble ER luminal domain (residues 105 to 458) of wild-type human FicD; 6xHis-Sumo (N, cleaved yes); made in house; host or cells: Rosetta(DE3) E. coli
T2 sequence (Q9BVA6 105-458): T1 sequence (Q9BVA6 105-458 L258D) with D154L

FicD^E234G = molecular target: T3, FicD^E234G (Homo sapiens, UniProt Q9BVA6, E234G); assay: MIDAS metabolite screen, FicD^E234G; details: cutoff Q < 0.05 and |Log2 corrected fold change| > 2, metabolites 5 µM
T3 construct: soluble ER luminal domain (residues 105 to 458) of wild-type human FicD and three mutants; 6xHis-Sumo (N, cleaved yes); made in house; host or cells: Rosetta(DE3) E. coli
T3 sequence (Q9BVA6 105-458 E234G): T1 sequence (Q9BVA6 105-458 L258D) with E130G, D154L

FicD^L258D [3] = molecular target: T1, FicD^L258D; assay: MIDAS metabolite screen, FicD^L258D; details: cutoff Q < 0.05 and |Log2 corrected fold change| > 2, metabolites 5 µM
Excerpt: To identify small-molecule metabolite interactions with FicD, we applied an unbiased high-throughput screening approach known as MIDAS ([44]). Given the high concentrations of protein required for MIDAS screening, we purified the soluble ER luminal domain (residues 105 to 458) of wild-type human FicD and three mutants FicD^E234G, FicD^L258D, and FicD^H363A for screening (Fig. 1A). These mutants were selected based on their well-established biochemical features ([23], [24], [31]). All three are predicted to enhance detection of protein–metabolite interactions (PMIs) relative to FicD^WT through increased affinity for nucleotide substrates (FicD^E234G), improved solubility (FicD^L258D), and loss of catalytic turnover (FicD^H363A) (Fig. 1A). To decrease the potential for nonspecific small-molecule binding, we ensured the purity of our FicD proteins (SI Appendix, Fig. S1 A and B). As reported by other investigators ([24], [31]), we observe an increase in elution volume of the FicD^L258D mutant, consistent with its monomerization (SI Appendix, Fig. S1C).
Out of the 602 naturally occurring human metabolites in the MIDAS library, we applied a significance cutoff (q value < 0.05) to identify 12 PMIs with a Log2 (corrected fold change) of >2 and two PMIs with a Log2 (corrected fold change) <-2 in the FicD^WT screen (Fig. 1B and SI Appendix, Table S2). Hits were additionally triaged based on detection of multiple adducts of the metabolite in a single dataset (FPP and […] in Fig. 1B) and identification of the same metabolites across three or more of the FicD construct screens (Fig. 1C). Three chemical classes passed this initial triage: adenosine nucleotides, isoprenoid diphosphates, and thyroid hormone intermediates (Fig. 1 B and C and SI Appendix, Tables S2–S5).
22°C. Induced cultures were then harvested by centrifugation at 8000G for 15 minutes at 4°C and […]
Bacterial pellets were resuspended in 30-50mL of 50mM Tris pH 7.4/150mM NaCl/10% glycerol with one Roche cOmplete EDTA-Free Protease inhibitor cocktail tablet (cat no. COEDTAF-RO).
Triton-X100 to a final concentration of 0.2%, Chicken-egg lysozyme to a final concentration of 0.4ug/mL, and 2-5uL of Millipore Benzonase Nuclease (cat no. 70664) were added to bacterial suspension prior to sonication at 40-50% amplitude for 1-3 minutes in pulses of 5 seconds on and 30 seconds off on ice with a Sonics VCX 750 Ultrasonicator. Bacterial lysate was then clarified by centrifugation at 30,000 x g for 30 minutes at 4°C.
Clarified lysate was rotated with Qiagen NiNTA agarose beads (cat no. 30210) for 1-2 hours at 4°C. The beads were then transferred to a 15mL conical vial, resuspended in 10-15mL wash buffer (50mM Tris pH 7.4/150mM NaCl/10% glycerol/0.2% Triton-X 100/10mM imidazole), and spun down at 1000G for 1 minute at 4°C, after which the supernatant was aspirated from the beads. This washing step was repeated 2-4 times to rinse bacterial lysate from the beads prior to on-column washing. The beads were then transferred to BioRad Econopac 20mL bed volume column (cat no.
7321010) and washed with 10-15mL of wash buffer (repeated at least three times), 10mL of ATP wash (50mM Tris pH 7.4/300mM KCl/10mM MgCl2/500uM ATP, repeated once), and finally with 10-15mL wash buffer without Triton-X 100 (repeated at least three times). Protein was eluted in 500μL-1mL elution buffer (50mM Tris pH 7.5/150mM NaCl/10% glycerol/0.5% CHAPS). […]

Row | Compound | Kd (FicD^L258D [1]; read-out: Kd (ITC), Replicate 1) [nM] | Kd (FicD^L258D [1]; read-out: Kd (ITC), Replicate 2) [nM] | Kd (FicD^L258D [1]; read-out: Kd (ITC), Replicate 3) [nM] | Kd (FicD^L258D [1]; read-out: Kd (ITC), global fitting of triplicate isotherms) | EC50 (FicD^L258D [2]; FicD^L258D, 5 mM MgCl2, read-out: EC50 of DSF dose-response (ΔTm)) [nM] | MIDAS protein-metabolite interaction (enrichment/depletion) (FicD^WT) | MIDAS protein-metabolite interaction (enrichment/depletion) (FicD^E234G) | maximal Tm shift at saturating ligand concentration (FicD^L258D [2]; FicD^L258D, 5 mM MgCl2) | binding to FicD^L258D by DSF (FicD^L258D [2]; absence of MgCl2) | binding to FicD^L258D by DSF (FicD^L258D [2]; presence of 5 mM MgCl2) | MIDAS protein-metabolite interaction (enrichment/depletion) (FicD^L258D [3])
1 | CC(C)=CCC/C(C)=C/CC/C(C)=C/CO[P@@](=O)(O)OP(=O)(O)O (stereo in doubt) [FPP, farnesyl-pyrophosphate] | 32.3 | 25.6 | 45.2 | ~60 nM and 60.3 nM and 60 nM | 9600 | – | – | – | – | – | –
2 | deoxyadenosine diphosphate [dADP] | – | – | – | – | – | significantly enriched | significantly enriched | ~ 11 °C | did not bind | binding | significantly enriched
